Values of other authors in patent EP1928431B1, “CONTROLLED RELEASE PHARMACEUTICAL COMPOSITION CONTAINING CARVEDILOL” (Egis Gyógyszergyár Nyilvánosan Múködö Részvénytársaság, priority 2005, dated 2007).
≈ marks a conversion by molar mass, not a printed value. Like-named read-outs stand apart in the source and are kept apart here.

Columns and labels:
[1] = orally administered and absorbed taken as 100%
[2] = WO01/35958
[3] = in water

- absorption ([1]; administered in ileum): 28%
- absorption ([1]; administered in the colon): 7%
- absorption ([1]; administered in the jejunum): 56%
- solubility in water [2]: 10 µg/mL (≈ 24.6 µM)
- solubility ([3]; pH 1): 1000 µg/mL (≈ 2460 µM)
- solubility ([3]; pH 8): 10 µg/mL (≈ 24.6 µM)
SMILES: COc1ccccc1OCCNCC(O)COc1cccc2[nH]c3ccccc3c12 (stereo not drawn) [carvedilol, 1-[9'H-carbazol-4'-yloxy]-3-[{2"-(2""-<methoxy>-phenoxy)-ethyl}-amino]-propan-2-ol]
